The test system of the assay is HT-29 cells. The assay is described as follows: Necroptosis assay (TNF-α/Smac mimetic/z-VAD, TSZ-induced) in HT-29 cells. Type of assay: cell-based, human. The settings on record: Series 1 (Table 1) compounds 1-146, HT-29 cells, TNF-α/Smac mimetic/z-VAD, 24 hrs, cell viability by ATP level, read-out: Series 1 compound necroptosis activity. In a few lines: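 HT-29 cells were challenged with 20 ng/ml TNF-α, 100 nM Smac mimetic and 20 mM z-VAD while compound was added at the same time (library screen at 10 mM). After 24 h, viability was read as ATP luminescence (CellTiter-Glo) and normalized to DMSO-treated cells; values are means ± SD of duplicates.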

Like-named read-outs stand apart in the source and are kept apart here.

`CCCOc1ccc(OC)c(CS(=O)(=O)c2nc3c(c(=O)n(C)c(=O)n3C)n2C)c1` [Compound 68, 8-(2-methoxy-5-propoxybenzylsulfonyl)-1,3,7-trimethyl-1H-purine-2,6(3H,7H)-dione]: the EC50 fell in the range of 1 to 1000 µM.

`COc1ccc(Br)c(OC)c1CS(=O)(=O)c1nc2c(c(=O)n(C)c(=O)n2C)n1C` [Compound 69, 8-(3-bromo-2,6-dimethoxybenzylsulfonyl)-1,3,7-trimethyl-1H-purine-2,6(3H,7H)-dione]: the EC50 was 1 to 1000 µM.

As to `COc1cc(CS(=O)(=O)c2nc3c(c(=O)n(C)c(=O)n3C)n2C)c(OC)cc1Cl` [Compound 70, 8-(4-chloro-2,5-dimethoxybenzylsulfonyl)-1,3,7-trimethyl-1H-purine-2,6(3H,7H)-dione], the EC50 is 1 to 1000 µM.

`COc1cc(CS(=O)(=O)c2nc3c(c(=O)n(C)c(=O)n3C)n2C)c(OC)cc1F` [Compound 71, 8-(4-fluoro-2,5-dimethoxybenzylsulfonyl)-1,3,7-trimethyl-1H-purine-2,6(3H,7H)-dione]: the EC50 is 1 to 1000 µM.

Turning to `Cn1c(=O)c2[nH]c(S(C)(=O)=O)nc2n(C)c1=O` [Compound 72, 1,3-dimethyl-8-(methylsulfonyl)-1H-purine-2,6(3H,7H)-dione], the EC50 was 1 to 1000 µM.

Regarding `CCn1c(SC)nc2c1c(=O)n(C)c(=O)n2C` [Compound 73, 7-ethyl-1,3-dimethyl-8-(methylthio)-1H-purine-2,6(3H,7H)-dione], the EC50 lay within 1 to 1000 µM.

As for `CCn1c(S(C)(=O)=O)nc2c1c(=O)n(C)c(=O)n2C` [Compound 74, 7-ethyl-1,3-dimethyl-8-(methylsulfonyl)-1H-purine-2,6(3H,7H)-dione], the EC50 (Homo sapiens) was 1 to 10 µM.

With `CCSc1nc2c(c(=O)n(C)c(=O)n2C)n1CC` [Compound 75, 7-ethyl-8-(ethylthio)-1,3-dimethyl-1H-purine-2,6(3H,7H)-dione], the EC50 was 1 to 1000 µM.

On to `CCn1c([S+]([O-])CC)nc2c1c(=O)n(C)c(=O)n2C` (centres unmarked) [Compound 76, 7-ethyl-8-(ethylsulfinyl)-1,3-dimethyl-1H-purine-2,6(3H,7H)-dione], for which the EC50 lay in the range of 1 to 1000 µM.

For the compound `CCn1c(S(=O)(=O)CC)nc2c1c(=O)n(C)c(=O)n2C` [Compound 77, 7-ethyl-8-(ethylsulfonyl)-1,3-dimethyl-1H-purine-2,6(3H,7H)-dione], the EC50 lay within 1 to 1000 µM.

`CCCSc1nc2c(c(=O)n(C)c(=O)n2C)n1CC` [Compound 78, 7-ethyl-1,3-dimethyl-8-(propylthio)-1H-purine-2,6(3H,7H)-dione]: the EC50 lay within 1 to 1000 µM.

Turning to `CCC[S+]([O-])c1nc2c(c(=O)n(C)c(=O)n2C)n1CC` (centres unmarked) [Compound 79, 7-ethyl-1,3-dimethyl-8-(propylsulfinyl)-1H-purine-2,6(3H,7H)-dione], the EC50 lay within 1 to 1000 µM.

As to `CCCS(=O)(=O)c1nc2c(c(=O)n(C)c(=O)n2C)n1CC` [Compound 80, 7-ethyl-1,3-dimethyl-8-(propylsulfonyl)-1H-purine-2,6(3H,7H)-dione], the EC50 was 1 to 1000 µM.

Consider `CCn1c(SCC2CC2)nc2c1c(=O)n(C)c(=O)n2C` [Compound 81, 8-(cyclopropylmethylthio)-7-ethyl-1,3-dimethyl-1H-purine-2,6(3H,7H)-dione], for which the EC50 was in the range of 1 to 1000 µM.

For `CCn1c(S(=O)(=O)CC2CC2)nc2c1c(=O)n(C)c(=O)n2C` [Compound 82], for the setting “Homo sapiens”, the EC50 is 1 to 100 µM.

As for `CCCn1c(S(C)(=O)=O)nc2c1c(=O)n(C)c(=O)n2C` [Compound 83, 1,3-dimethyl-8-(methylsulfonyl)-7-propyl-1H-purine-2,6(3H,7H)-dione], the EC50 is 1 to 1000 µM.

On to `Cn1c(=O)c2c(nc(S(C)(=O)=O)n2CC#N)n(C)c1=O` [Compound 84, 2-(1,3-dimethyl-8-(methylsulfonyl)-2,6-dioxo-2,3-dihydro-1H-purin-7(6H)-yl)acetonitrile], for which the EC50 was in the range of 1 to 1000 µM.

Turning to `CSc1nc2c(c(=O)n(C)c(=O)n2C)n1CC(N)=O` [Compound 85, 2-(1,3-dimethyl-8-(methylthio)-2,6-dioxo-2,3-dihydro-1H-purin-7(6H)-yl)acetamide], the EC50 was in the range of 1 to 1000 µM.

Turning to `Cn1c(=O)c2c(nc(S(C)(=O)=O)n2CC(N)=O)n(C)c1=O` [Compound 86, 2-(1,3-dimethyl-8-(methylsulfonyl)-2,6-dioxo-2,3-dihydro-1H-purin-7(6H)-yl)acetamide], the EC50 was 1 to 1000 µM.

Take `CSc1nc2c(c(=O)[nH]c(=O)n2C)n1C` [Compound 87, 3,7-dimethyl-8-(methylthio)-1H-purine-2,6(3H,7H)-dione]: the EC50 lay within 1 to 1000 µM.

Regarding `Cn1c(S(C)(=O)=O)nc2c1c(=O)[nH]c(=O)n2C` [Compound 88, 3,7-dimethyl-8-(methylsulfonyl)-1H-purine-2,6(3H,7H)-dione], the EC50 was in the range of 1 to 1000 µM.

For `CCn1c(=O)c2c(nc(S(C)(=O)=O)n2C)n(C)c1=O` [Compound 89, ethyl-3,7-dimethyl-8-(methylsulfonyl)-1H-purine-2,6(3H,7H)-dione], the EC50 was in the range of 1 to 1000 µM.

Take `CCCn1c(=O)c2c(nc(S(C)(=O)=O)n2C)n(C)c1=O` [Compound 90, 3,7-dimethyl-8-(methylsulfonyl)-1-propyl-1H-purine-2,6(3H,7H)-dione]: the EC50 lay in the range of 1 to 1000 µM.

Regarding `Cn1c(S(C)(=O)=O)nc2c1c(=O)n(CC1CC1)c(=O)n2C` [Compound 91, 1-(cyclopropylmethyl)-3,7-dimethyl-8-(methylsulfonyl)-1H-purine-2,6(3H,7H)-dione], the EC50 was in the range of 1 to 1000 µM.

`Cn1c(S(C)(=O)=O)nc2c1c(=O)n(-c1ccccc1)c(=O)n2C` [Compound 92, 3,7-dimethyl-8-(methylsulfonyl)-1-phenyl-1H-purine-2,6(3H,7H)-dione]: the EC50 lay within 1 to 1000 µM.

Consider `Cn1c(S(C)(=O)=O)nc2c1c(=O)n(Cc1ccccc1)c(=O)n2C` [Compound 93, 1-benzyl-3,7-dimethyl-8-(methylsulfonyl)-1H-purine-2,6(3H,7H)-dione], for which the EC50 is 1 to 1000 µM.

Turning to `Cn1c(=O)[nH]c2nc(S(C)(=O)=O)n(C)c2c1=O` [Compound 99, 1,7-dimethyl-8-(methylsulfonyl)-1H-purine-2,6(3H,7H)-dione], the EC50 (Homo sapiens) was in the range of 1 to 100 µM.

As to `CCn1c(=O)n(C)c(=O)c2c1nc(S(C)(=O)=O)n2C` [Compound 100, 3-ethyl-1,7-dimethyl-8-(methylsulfonyl)-1H-purine-2,6(3H,7H)-dione], the EC50 (Homo sapiens) lay in the range of 1 to 100 µM.

As to `CCCn1c(=O)n(C)c(=O)c2c1nc(S(C)(=O)=O)n2C` [Compound 101, 1,7-dimethyl-8-(methylsulfonyl)-3-propyl-1H-purine-2,6(3H,7H)-dione], the EC50 (Homo sapiens) was 1 to 100 µM.

For `Cn1c(=O)c2c(nc(S(C)(=O)=O)n2C)n(CC2CC2)c1=O` [Compound 102, 3-(cyclopropylmethyl)-1,7-dimethyl-8-(methylsulfonyl)-1H-purine-2,6(3H,7H)-dione], the EC50 (Homo sapiens) fell in the range of 1 to 100 µM.

Consider `Cn1c(=O)c2c(nc(S(C)(=O)=O)n2C)n(Cc2ccccc2)c1=O` [Compound 103, 3-benzyl-1,7-dimethyl-8-(methylsulfonyl)-1H-purine-2,6(3H,7H)-dione], for which the EC50 (Homo sapiens) was in the range of 1 to 100 µM.

On to `C#CCn1c(=O)n(C)c(=O)c2c1nc(S(C)(=O)=O)n2C` [Compound 106, 1,7-dimethyl-8-(methylsulfonyl)-3-(prop-2-ynyl)-1H-purine-2,6(3H,7H)-dione], for which the EC50 (Homo sapiens) was 1 to 10 µM.

These data come from US11666577B2 (National Institute of Biological Sciences, Beijing, priority 2018, dated 2023).
